Data reported in article PMC10126419, “pyHeart4Fish: Chamber-specific heart phenotype quantification of zebrafish in high-content screens” (Frontiers in Cell and Developmental Biology, 2023).
Entries after “also recorded” stand apart in the source; their conditions may differ. Where a name gives a salt, the structure may show the parent alone. Read-outs that look alike come from different tables or passages of the source.

Columns and labels:
[1] = test system: Tg(myl7:eGFP)^twu34/+ zebrafish embryos; test: Chamber-specific quantitative heart phenotyping with pyHeart4Fish; conditions: 20 µM; for Effect on heart rate / Effect on heart function / morphology: contractility, conduction, arrhythmia, HS, EF: vs DMSO controls; for Arrhythmia / Conduction defect: number of fish;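 as to all read-outs here: embryos exposed 24 h from 24 hpf in 0.2% DMSO egg water, tricaine-anaesthetised, heartbeat videos imaged at 470 nm and hearts analysed chamber by chamber from pixel-intensity beat curves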
Description: (§1) Embryos were dechorionated at 21 hpf using 0.22 mg/ml pronase (Merck Chemicals) for 12 min. Then, embryos were carefully washed three times with egg water and transferred into a 96-deep-well plate. After incubation at 28°C for 3 h, excess water was removed with a glass capillary and exchanged with 100 µL/well of 20 µM compound solution from the Prestwick Chemical Library (Prestwick Chemicals, France) in 0.2% DMSO (v/v) in egg water. […] Subsequently, embryos were exposed to compounds for 24 h at 28°C in the dark to enable testing of light-sensitive compounds. Solutions were removed at 48 hpf before wells containing embryos were washed three times with system water. Then, treated embryos were transferred into 12-well plates containing 1 ml 0.03% tricaine in system water (Sigma-Aldrich, Germany). Testing different concentrations (5–80 µM) of compounds and their respective controls followed the above protocol.
(§2) Oriented embryos in 96-well plates were automatically imaged using an [sequence] Imaging Machine ([sequence] Imaging, Germany) widefield microscope. Z-stacks of 10 slices (dZ = 15 µm) were acquired in brightfield (BF) and 470 nm channels with a 4×0.13 numerical aperture objective. The focal plane was detected in the 470 nm channel using a course and secondary fine software autofocus. BF integration time was fixed at 20 ms exposure time and 55% LED intensity. The exposure time for the 470 nm channel was set to 10 ms with a 10% LED intensity. Heartbeat videos of 6 s at 6 frames/second (f/s) were acquired with a time-lapse at a 0 s interval in the focus plane acquired after secondary autofocus using the previously described integration and exposure settings with a 10×0.25 numerical aperture objective.
(§3) Hearts are analyzed chamber-specifically via the user-assisted region of interest (ROI) selection. Cardiac morphology parameters (HS and shape) are extracted as the median of the first six images/frames. Raw data of heartbeat curves for the atrium and ventricle are derived from the sum of pixel intensities and normalized chamber areas. Frequencies (in s^-1) of atrium and ventricle contraction are obtained by applying sine-curve fitting or fast Fourier transformation (FFT) using the SciPy modules “optimize.curve_fit” and “fft.rfft/fft.rfftfreq”, respectively ([Virtanen et al., 2020]). Curve fitting is performed with a maximum of 30 iterations while increasing the frequencies of the fitted sine function. The best fit is selected using the correlation coefficient between the raw data and the fitted function implemented in the NumPy package. A fitted sine function and fitting score are also determined for a truncated signal (first quarter), and the best-fitted sine function is kept to account for an unstable heartbeat signal. In the case of FFT, the first harmonic of the FFT signal is used as the frequency of the atrium or ventricle contraction. Analysis with pyHeart4Fish provides heartbeat videos in GIF format, heartbeat curves as PNG/PDF files and a data sheet containing meta information and cardiac parameters.

[2] = parameters: method as in Prestwick Chemical Library; conditions: solvents; library annotation, ref Prestwick Chemical Library; cited from earlier work
zebrafish embryos [3] = test: Manually assessed pericardial edema in treated zebrafish; assay type: in vivo; conditions: for Pericardial edema severity: myl7:eGFP zebrafish
Description: FIGURE 4 Quantitative data analysis with pyHeart4Fish. […] (A) The left graph presents the detected heart rate derived from the fast fourier transformation (FFT). […] (B) Percentual data on the severity of manually assessed pericardial edema in treated Tg(myl7:eGPF)^twu34/+ zebrafish. (C) The relative contractility derived from percentual size changes of each heart chamber (left graph). Approximate ejection fraction determined by chamber volume changes (right graph). […] The number of fish analyzed is shown in brackets after the treatment condition. Dotted gray lines indicate z-scores of ±1.96 and statistical significance with an alpha error of 5%.

[4] = test system: Tg(fli1a:nEGFP)^y7 zebrafish embryos; test: Primary high-content heart rate screen of the Prestwick Chemical Library (HeartBeat software v.2.1); assay type: in vivo; conditions: 20 µM
Description: Acquired image series were preprocessed and analyzed using the previously published HeartBeat software v.2.1 and provided scripts ([Gierten et al., 2020]). For increased comparability between experiments, each quantitative HR value (beats per minute) was divided by the mean of the DMSO controls from the respective experiment. This procedure minimizes variation and creates specific fold-change values that are z-score normalized in the next step. A 90% CI was used to reduce the probability of false-negative results. Finally, data from compounds with insufficient N and known aquatic toxicity were removed.
Based on a previously established high-throughput screening pipeline, we performed a high-content drug screen in zebrafish for cardiovascular modulators ([Poureetezadi et al., 2014]; [Gierten et al., 2020]; [Westhoff et al., 2020]). […] About 98% of the library’s compounds are approved by the Food and Drug Administration (FDA), European Medicines Agency (EMA) or other regulatory agencies. The drug library was screened at a concentration of 20 µM for 24 h until 48 hpf using the transgenic zebrafish line Tg(fli1a:nEGFP)^y7. Subsequently, BF images and videos were captured at 2 dpf to assess gross morphology. HR was analyzed with the previously published tool HeartBeat (v.2.1) to identify potential hit compounds. A 90% CI threshold for effect sizes of ±1.64 was used to reduce false-negative results. […] The Open Targets platform and the Mayo Clinic Drugs and Supplements Database were systematically searched for compound names and common synonyms ([Drugs and Supplements, 2022]; [Open Targets, 2022]). The Medical Subject Headings (MeSH) terms “compound name” and “heart rate” were applied to NCBI PubMed literature research before the first five pages of publications sorted by relevance were screened for relevant information. Furthermore, compounds were filtered for unknown targets (n = 3), FDA black box warning (n = 6) and aquatic toxicity (n = 4). […] Therefore, compounds with n < 3 were excluded (n = 7).

zebrafish embryos [5] = test: Toxicity score (ToxScore) at increasing compound concentrations
Description: as §1
Embryos that were deceased and not intact were assigned a max. ToxScore value of 5.

zebrafish embryos [6] = test: Gross morphology / development of treated zebrafish 2 dpf (brightfield); assay type: in vivo; conditions: 20 µM; for Gross morphology / developmental and teratogenic effects: 2 dpf
Description: FIGURE 5 Morphology of treated zebrafish 2 dpf. An overview of the gross phenotypes of treated zebrafish 2 days post-fertilization. All compounds were dissolved in DMSO; therefore, DMSO served as the negative control. NaCl served as the salt control. The effects of atorvastatin treatment on zebrafish embryos were previously established; thus, this drug was used as a positive control for cardioactivity. The aquatic toxic compound enilconazole was used as the toxic positive control. […] The black arrow in the image of iopanoic acid-treated zebrafish embryo indicates caudal fin deformity. The scale bar indicates 500 µm in overview brightfield images and 150 µm in fluorescence images. (a) Atrium; (v) ventricle.

[7] = test system: Tg(myl7:eGFP)^twu34/+ zebrafish embryos; conditions: in vivo;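 also: embryos exposed 24 h from 24 hpf in 0.2% DMSO egg water, tricaine-anaesthetised, heartbeat videos imaged at 470 nm and hearts analysed chamber by chamber from pixel-intensity beat curves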
Description: as §1, §2, §3

[8] = number of fish, 20 µM, Tg(myl7:eGFP)
[9] = Tg(fli1a:nEGFP)^y7, zebrafish, in vivo, 24 h
[10] = 24 h until 48 hpf, Tg(fli1a:nEGFP)y7

Edema: Mild (zebrafish embryos [3]; [8])	Edema: Moderate (zebrafish embryos [3]; [8])	Edema: No edema (zebrafish embryos [3]; [8])	Edema: Severe (zebrafish embryos [3]; [8])	Compound	Arrhythmia [1]	Conduction defect [1]	Lit. Solubility [2]	Z-score Heart rate [4, 9] [z-score]	Gross morphology / developmental and teratogenic effects (zebrafish embryos [6])	further results
–	–	–	–	CCOC(=O)N1CCC(=C2c3ccc(Cl)cc3CCc3cccnc32)CC1 [Loratadine]	–	–	–	–	–	Z-score Heart rate [4, 10]: -1.771 z-score
–	–	–	–	CN(C)CCOC(c1ccc(Cl)cc1)c1ccccn1.O=C(O)/C=C\C(=O)O (stereo not shown) [Carbinoxamine maleate salt]	–	–	H2O, EtOH, CHCl3	–	–	–
–	–	–	–	CN1CCC(OC(c2ccccc2)c2ccccc2)CC1 [Diphenylpyraline hydrochloride]	–	–	H2O, EtOH	-3.549	–	–
–	–	–	–	CN(C)CCC(c1ccc(Br)cc1)c1ccccn1 (stereo not shown) [Brompheniramine maleate]	–	–	–	-2.122	–	–
–	–	–	–	[Cl-].[Na+] [NaCl, sodium chloride]	–	–	–	–	–	Edema: Mild (zebrafish embryos [3]; zebrafish, in vivo): 7; Edema: Moderate (zebrafish embryos [3]; zebrafish, in vivo): 0; Edema: No edema (zebrafish embryos [3]; zebrafish, in vivo): 8; Edema: Severe (zebrafish embryos [3]; zebrafish, in vivo): 0; Arrhythmia [7]: 1; Chamber size Atrium Max. Contraction [7]: -0.090 z-score; Chamber size Atrium Max. Dilation [7]: -0.215 z-score; Chamber size Ventricle Max. Contraction [7]: -0.643 z-score; Chamber size Ventricle Max. Dilation [7]: 0.353 z-score; Conduction defect [7]: 0; Effect on heart function / morphology: contractility, conduction, arrhythmia, HS, EF [7]: did not significantly affect heart morphology or functionality; Ejection Fraction Atrium [7]: -0.097 z-score; Ejection Fraction Ventricle [7]: 1.036 z-score; FFT freq Atrium (heart rate) [7]: -0.679 z-score; FFT freq Ventricle (heart rate) [7]: -0.573 z-score; Heart size [7]: 0.745 z-score; Relative contractility Atrium [7]: -0.00158 z-score; Relative contractility Ventricle [7]: 0.272 z-score
–	–	–	–	CN1CCCN(C(c2ccccc2)c2ccc(Cl)cc2)CC1.Cl.Cl (stereo not shown) [Homochlorcyclizine dihydrochloride]	–	–	–	–	–	Z-score Heart rate [4, 10]: -1.853 z-score
–	–	–	–	CC(C)(C)c1ccc(C(O)CCCN2CCC(C(O)(c3ccccc3)c3ccccc3)CC2)cc1 (stereo not shown) [Terfenadine]	–	–	EtOH/H2O:50/50	-5.761	–	–
5	0	0	0	OCCN1CCN(CCCN2c3ccccc3C=Cc3ccccc32)CC1 [Opipramol diHCl]	1	0	–	–	mild developmental delay	Effect on heart function / morphology: contractility, conduction, arrhythmia, HS, EF [1]: do not induce arrhythmia; Effect on heart rate [1]: did not affect HR; Effect on heart function / morphology: contractility, conduction, arrhythmia, HS, EF ([1]; listed as OPI): significantly reduced relative ventricular contractility; Pericardial edema severity (zebrafish embryos [3]; 20 µM): mild edema
–	–	–	–	Cc1ccc(/C(=C\CN2CCCC2)c2ccccn2)cc1.Cl [Triprolidine hydrochloride]	–	–	H2O, MeOH, EtOH	–	–	–
4	0	4	0	N=C(N)c1ccc(OCCCCCOc2ccc(C(=N)N)cc2)cc1 [Pentamidine isethionate]	1	0	–	–	did not reveal teratogenic effects	–
–	–	–	–	CN1CCN(C(c2ccccc2)c2ccc(Cl)cc2)CC1 (stereo not shown) [Chlorcyclizine hydrochloride]	–	–	H2O, CHCl3	–	–	Z-score Heart rate [4, 10]: -2.061 z-score
1	0	4	0	Cc1cc(/C=C/c2ccc3cc(N(C)C)ccc3[n+]2C)c(C)n1-c1ccccc1 [Pyrvinium pamoate]	1	0	–	–	no teratogenic effects	Effect on heart function / morphology: contractility, conduction, arrhythmia, HS, EF [1]: did not affect relative contractility, conduction, and HS
5	1	5	0	CC(C)c1c(C(=O)Nc2ccccc2)c(-c2ccccc2)c(-c2ccc(F)cc2)n1CC[C@@H](O)C[C@@H](O)CC(=O)O [Atorvastatin, atorvastatin]	11	0	–	–	–	Effect on heart function / morphology: contractility, conduction, arrhythmia, HS, EF [1]: did not cause electrophysiological conduction defects; Effect on heart rate [1]: significantly decreased HR
–	–	–	–	CN1CCCC(n2nc(Cc3ccc(Cl)cc3)c3ccccc3c2=O)CC1 (stereo not shown) [Azelastine hydrochloride]	–	–	H2O, EtOH, DMSO	-2.598	–	–
2	0	2	0	CN(C)CCCOc1nn(Cc2ccccc2)c2ccccc12 [Benzydamine HCl]	1	0	–	–	–	Effect on heart function / morphology: contractility, conduction, arrhythmia, HS, EF [1]: do not induce arrhythmia; Effect on heart function / morphology: contractility, conduction, arrhythmia, HS, EF ([1]; listed as BZY): no conduction defects or arrhythmias were detected; also recorded: relative ventricle contractility increased significantly; Treated embryos with pericardial edema (zebrafish embryos [3]; 20 µM): 50%
1	3	0	1	CC(=O)[C@H]1CC[C@H]2[C@@H]3CC=C4C[C@@H](O)CC[C@]4(C)[C@H]3CC[C@]12C [Pregnenolone]	1	1	–	–	teratogenic effects	Effect on heart function / morphology: contractility, conduction, arrhythmia, HS, EF ([1]; listed as P5): relative contractility of both heart chambers was affected by impaired contraction; also recorded: HS and morphology were not affected; Pericardial edema severity (zebrafish embryos [3]; 20 µM): moderate to severe pericardial and yolk edema
–	–	–	–	CN1CCC[C@@H]1CCO[C@](C)(c1ccccc1)c1ccc(Cl)cc1 [Clemastine fumarate]	–	–	MeOH	-2.7618	–	–

Compound	Edema: Mild (zebrafish embryos [3]; [8])	Edema: Moderate (zebrafish embryos [3]; [8])	Edema: No edema (zebrafish embryos [3]; [8])	Edema: Severe (zebrafish embryos [3]; [8])	Arrhythmia [1]	Conduction defect [1]	Lit. Solubility [2]	Z-score Heart rate [4, 9] [z-score]	Gross morphology / developmental and teratogenic effects (zebrafish embryos [6])	further results
CN(C)CCN(Cc1ccccc1)c1ccccn1 [Tripelennamine HCl, tripelennamine HCl]	4	5	2	0	0	0	DMSO	-2.358	development was not delayed	Effect on heart rate [1]: decreased HR; ToxScore, highest over tested concentrations (zebrafish embryos [5]; 5–80 µM): ≤ 2.6
Oc1ccc(OCc2ccccc2)cc1 [Monobenzone]	3	2	3	2	3	0	–	–	caused depigmentation without delaying development	Effect on heart function / morphology: contractility, conduction, arrhythmia, HS, EF [1]: did not cause any other alterations to heart phenotypes; ToxScore (zebrafish embryos [5]; 80 µM): ≤ 2.5
C=CCOC(Cn1ccnc1)c1ccc(Cl)cc1Cl (stereo not shown) [Enilconazole, enilconazole]	2	0	3	0	1	0	–	–	inhibited pigmentation	Effect on heart rate [1]: significantly reduced HR; Concentration-dependent toxic effects (zebrafish embryos [5]; 5–80 µM): dose-dependent; Treated fish with developmental delays (zebrafish embryos [6]; both zebrafish lines): 100%
